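Protocol summary: plate cells (96-well), add compound at 5 concentrations, incubate 48 h, interpolate endpoints linearly. Abbreviation: GI50, concentration required for 50% inhibition of growth. TGI marks complete inhibition of growth.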
Key:
Assay in all cases: NCI tumour cell line growth inhibition, 48 h
SF-268 CNS = system: SF-268 CNS
SF-539 CNS = system: SF-539 CNS
MCF7 breast = system: MCF7 breast
DU-145 prostate = system: DU-145 prostate
786-0 renal = system: 786-0 renal
IGROV1 ovarian = system: IGROV1 ovarian
A549 NSCLC = system: A549 NSCLC
NCI-H522 lung = system: NCI-H522 lung
HL-60(TB) leukemia = system: HL-60(TB) leukemia
A498 renal = system: A498 renal
HOP-92 NSCLC = system: HOP-92 NSCLC
SK-MEL-28 melanoma = system: SK-MEL-28 melanoma
UO-31 renal = system: UO-31 renal
SR leukemia = system: SR leukemia
NCI-H460 lung = system: NCI-H460 lung
OVCAR-4 ovarian = system: OVCAR-4 ovarian
SW-620 colon = system: SW-620 colon
CAKI-1 renal = system: CAKI-1 renal
NCI-H226 lung = system: NCI-H226 lung
HCT-15 colon = system: HCT-15 colon
UACC-257 melanoma = system: UACC-257 melanoma
CCRF-CEM leukemia = system: CCRF-CEM leukemia
MOLT-4 leukemia = system: MOLT-4 leukemia
EKVX NSCLC = system: EKVX NSCLC
PC-3 prostate = system: PC-3 prostate
LOX IMVI melanoma = system: LOX IMVI melanoma
SNB-75 CNS = system: SNB-75 CNS
HCC-2998 colon = system: HCC-2998 colon
SK-OV-3 ovarian = system: SK-OV-3 ovarian
OVCAR-8 ovarian = system: OVCAR-8 ovarian
UACC-62 melanoma = system: UACC-62 melanoma
MDA-N = system: MDA-N
ACHN renal = system: ACHN renal
NCI-H23 lung = system: NCI-H23 lung
KM12 colon = system: KM12 colon
HCT-116 colon = system: HCT-116 colon
M14 melanoma = system: M14 melanoma
MDA-MB-231 breast = system: MDA-MB-231 breast
SN12C renal = system: SN12C renal
COLO 205 colon = system: COLO 205 colon
TK-10 renal = system: TK-10 renal
RXF 393 renal = system: RXF 393 renal
SF-295 CNS = system: SF-295 CNS
BT-549 breast = system: BT-549 breast
MALME-3M melanoma = system: MALME-3M melanoma
HS 578T breast = system: HS 578T breast
HOP-62 NSCLC = system: HOP-62 NSCLC
SNB-19 CNS = system: SNB-19 CNS
K-562 leukemia = system: K-562 leukemia
NCI/ADR-RES ovarian = system: NCI/ADR-RES ovarian
OVCAR-5 ovarian = system: OVCAR-5 ovarian
U251 CNS = system: U251 CNS
RPMI-8226 leukemia = system: RPMI-8226 leukemia
T-47D breast = system: T-47D breast
MDA-MB-435 = system: MDA-MB-435
OVCAR-3 ovarian = system: OVCAR-3 ovarian

Cc1cc(C)c2c(=O)cc(-c3cccc(Cl)c3)[nH]c2n1
TGI (SF-268 CNS): > 100 µM | TGI (SF-539 CNS): 0.464 µM | TGI (MCF7 breast): > 100 µM | TGI (DU-145 prostate): > 100 µM | TGI (786-0 renal): > 55.1 µM | TGI (IGROV1 ovarian): > 100 µM | TGI (A549 NSCLC): > 100 µM | TGI (NCI-H522 lung): 0.742 µM | TGI (HL-60(TB) leukemia): 2.15 µM | TGI (A498 renal): > 100 µM | TGI (HOP-92 NSCLC): > 100 µM | TGI (SK-MEL-28 melanoma): > 100 µM | TGI (UO-31 renal): > 100 µM | TGI (SR leukemia): > 100 µM | TGI (NCI-H460 lung): > 100 µM | TGI (OVCAR-4 ovarian): > 100 µM | TGI (SW-620 colon): > 100 µM | GI50 (CAKI-1 renal): 0.204 µM | TGI (CAKI-1 renal): > 100 µM | TGI (NCI-H226 lung): > 100 µM | TGI (HCT-15 colon): > 100 µM | TGI (UACC-257 melanoma): > 94.1 µM | TGI (CCRF-CEM leukemia): > 100 µM | TGI (MOLT-4 leukemia): > 38.8 µM | TGI (EKVX NSCLC): > 100 µM | TGI (PC-3 prostate): 0.0967 µM | TGI (LOX IMVI melanoma): > 34.2 µM | TGI (SNB-75 CNS): > 100 µM | TGI (HCC-2998 colon): > 100 µM | TGI (SK-OV-3 ovarian): > 100 µM | TGI (OVCAR-8 ovarian): > 100 µM | TGI (UACC-62 melanoma): > 100 µM | TGI (MDA-N): 0.0529 µM | TGI (ACHN renal): > 100 µM | TGI (NCI-H23 lung): > 100 µM | TGI (KM12 colon): > 100 µM | TGI (HCT-116 colon): > 23.1 µM | TGI (M14 melanoma): > 100 µM | TGI (MDA-MB-231 breast): 8.09 µM | TGI (SN12C renal): > 38.3 µM | TGI (COLO 205 colon): > 67.1 µM | TGI (TK-10 renal): > 100 µM | TGI (RXF 393 renal): > 100 µM | TGI (SF-295 CNS): 0.33 µM | TGI (BT-549 breast): 85.3 µM | TGI (MALME-3M melanoma): > 100 µM | TGI (HS 578T breast): > 100 µM | TGI (HOP-62 NSCLC): > 100 µM | TGI (SNB-19 CNS): > 100 µM

N#Cc1ccsc1Nc1ccccc1[N+](=O)[O-]
TGI (SF-268 CNS): > 100 µM | TGI (K-562 leukemia): > 100 µM | TGI (SF-539 CNS): > 100 µM | TGI (MCF7 breast): > 100 µM | TGI (DU-145 prostate): > 100 µM | TGI (786-0 renal): > 100 µM | TGI (IGROV1 ovarian): > 100 µM | TGI (A549 NSCLC): > 100 µM | TGI (NCI/ADR-RES ovarian): > 100 µM | TGI (NCI-H522 lung): > 100 µM | TGI (A498 renal): > 100 µM | TGI (HOP-92 NSCLC): > 100 µM | TGI (SK-MEL-28 melanoma): > 100 µM | TGI (UO-31 renal): > 100 µM | TGI (SR leukemia): > 100 µM | TGI (OVCAR-5 ovarian): > 100 µM | TGI (NCI-H460 lung): > 100 µM | TGI (OVCAR-4 ovarian): > 100 µM | TGI (SW-620 colon): > 100 µM | TGI (CAKI-1 renal): > 100 µM | TGI (NCI-H226 lung): > 100 µM | TGI (HCT-15 colon): > 100 µM | TGI (UACC-257 melanoma): > 100 µM | TGI (CCRF-CEM leukemia): > 100 µM | TGI (MOLT-4 leukemia): > 100 µM | TGI (EKVX NSCLC): > 100 µM | TGI (PC-3 prostate): > 100 µM | TGI (SNB-75 CNS): > 100 µM | TGI (HCC-2998 colon): > 100 µM | TGI (SK-OV-3 ovarian): > 100 µM | TGI (OVCAR-8 ovarian): > 100 µM | TGI (UACC-62 melanoma): > 100 µM | TGI (MDA-N): > 100 µM | TGI (ACHN renal): > 100 µM | TGI (U251 CNS): > 100 µM | TGI (NCI-H23 lung): > 100 µM | TGI (KM12 colon): > 100 µM | TGI (HCT-116 colon): > 100 µM | TGI (M14 melanoma): > 100 µM | TGI (MDA-MB-231 breast): > 100 µM | TGI (RPMI-8226 leukemia): > 100 µM | TGI (SN12C renal): > 100 µM | TGI (T-47D breast): > 100 µM | TGI (COLO 205 colon): > 100 µM | TGI (RXF 393 renal): > 100 µM | TGI (SF-295 CNS): > 100 µM | TGI (BT-549 breast): > 100 µM | TGI (MALME-3M melanoma): > 100 µM | TGI (MDA-MB-435): > 100 µM | TGI (OVCAR-3 ovarian): > 100 µM | TGI (HOP-62 NSCLC): > 100 µM | TGI (SNB-19 CNS): > 100 µM

Source: PubChem BioAssay (NCI)
